Values quoted from earlier work as cited in US12697292B2, “Method for treating human hair with agents containing mixtures of organic C1-C6 alkoxy siloxanes” (Henkel AG & Co. KGaA, priority 2021, dated 2026).

Details: 25° C.

solubility in water | Compound | water solubility
– | CCN(Cc1cccc(S(=O)(=O)[O-])c1)c1ccc(C(=C2C=CC(=[N+](CC)Cc3cccc(S(=O)(=O)[O-])c3)C=C2)c2ccccc2S(=O)(=O)[O-])cc1.[Na+].[Na+] [Acid Blue 9] | more than 20 wt. %
– | O=S(=O)([O-])c1ccc(N=Nc2c(O)ccc3ccccc23)cc1.[Na+] [Acid Orange 7, sodium salt of 4-[(2-hydroxy-1-naphthyl)azo] benzene sulphonate] | more than 7 g/L
– | Nc1cc(S(=O)(=O)[O-])cc2cc(S(=O)(=O)[O-])c(N=Nc3ccccc3)c(O)c12.[Na+].[Na+] [Acid Red 33, dianhydro salt of 5-amino-4-hydroxy-3-(phenylazo)-naphthalene-2,7-disulfonate] | 2500 µg/mL
– | O=C([O-])c1c(Cl)c(Cl)c(Cl)c(Cl)c1-c1c2cc(Br)c(=O)c(Br)c-2oc2c(Br)c([O-])c(Br)cc12.[Na+].[Na+] [Acid Red 92, disodium salt of 3,4,5,6-tetrachloro-2-(1,4,5,8-tetrabromo-6-hydroxy-3-oxanthene-9-yl) benzoic acid] | greater than 10 g/L
readily soluble | O=C([O-])C1=NN(c2ccc(S(=O)(=O)[O-])cc2)C(=O)C1N=Nc1ccc(S(=O)(=O)[O-])cc1.[Na+].[Na+].[Na+] (centres unmarked) [Acid Yellow 23, trisodium salt of 4,5-dihydro-5-oxo-1-(4-sulfophenyl)-4-((4-sulfophenyl)azo)-1H-pyrazole-3−carboxylic acid] | –
